Molecules are shown by their SMILES.

Sequence of human MDM2 protein (amino acids 2-188) (Q00987 2-188): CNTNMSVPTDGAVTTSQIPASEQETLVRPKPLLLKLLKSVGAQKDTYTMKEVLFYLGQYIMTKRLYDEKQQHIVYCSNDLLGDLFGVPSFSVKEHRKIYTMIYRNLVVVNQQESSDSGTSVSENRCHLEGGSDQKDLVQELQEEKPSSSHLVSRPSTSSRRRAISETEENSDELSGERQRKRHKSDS

The assay addresses human MDM2 protein (amino acids 2-188) (Homo sapiens (Human), UniProt Q00987). Kind of assay: TR-FRET assay, p53-MDM2 Assay 2 (modified). The class given is binding. To be noted: TR-FRET; 0.1 nM MDM2, 0.1 nM Europium labeled streptavidin, Tecan genios Pro reader; read-out: IC50 p53-MDM2 Assay 2. The method, boiled down: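 IC50 values were curve-fitted from the time-resolved 665/620 nm emission ratio after 340 nm excitation. The assay combined 0.625 nM europium-streptavidin donor with 1.25 nM C-terminally biotinylated MDM2 2–188 (15 min, RT), followed by 15 min with 10 nM Cy5-labeled p53 18–26 acceptor peptide.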
In general, IC50 refers to the concentration at which inhibition is half-maximal. Turning to `COc1ncc(-c2cc3c(n2C(C)C)[C@H](c2ccc(Cl)cc2)N(c2cc(Cl)ccc2C)C3=O)c(OC)n1` [Example 23, (S)-5-(5-Chloro-2-methyl-phenyl)-6-(4-chloro-phenyl)-2-(2,4-dimethoxy-pyrimidin-5-yl)-1-isopropyl-5,6-dihydro-1H-pyrrolo[3,4-b]pyrrol-4-one], the IC50 was found to be 0.065 nM.
Take `COc1nc(N(C)C)ncc1-c1cc2c(n1C(C)C)C(c1ccc(C#N)cc1)N(c1cc(Cl)cn(C)c1=O)C2=O` (stereo not shown) [Example 131, 4-[5-(5-Chloro-1-methyl-2-oxo-1,2-dihydro-pyridin-3-yl)-2-(2-dimethylamino-4-methoxy-pyrimidin-5-yl)-1-isopropyl-4-oxo-1,4,5,6-tetrahydro-pyrrolo[3,4-b]pyrrol-6-yl]-benzonitrile]: the IC50 was found to be 0.295 nM.
Take `COc1ncc(-c2cc3c(n2C(C)C)C(c2ccc(Cl)cc2)N(c2cc(C)nn2C)C3=O)c(OC)n1` (stereo not shown) [Example 176, 6-(4-Chloro-phenyl)-2-(2,4-dimethoxy-pyrimidin-5-yl)-5-(2,5-dimethyl-2H-pyrazol-3-yl)-1-isopropyl-5,6-dihydro-1H-pyrrolo[3,4-b]pyrrol-4-one]: the IC50 was determined as 0.87 nM.
As for `COc1nc(N(C)C)ncc1-c1cc2c(n1C(C)C)C(c1ccc(C#N)c(F)c1)N(c1cc(Cl)c(=O)n(C)c1)C2=O` (stereo not shown) [Example 194, 4-[5-(5-Chloro-1-methyl-6-oxo-1,6-dihydro-pyridin-3-yl)-2-(2-dimethylamino-4-methoxy-pyrimidin-5-yl)-1-isopropyl-4-oxo-1,4,5,6-tetrahydro-pyrrolo[3,4-b]pyrrol-6-yl]-2-fluoro-benzonitrile], the IC50 is 0.194 nM.
For `COc1ccc(CO)cc1-c1cc2c(n1C(C)C)C(c1ccc(Cl)cc1)N(c1cc(Cl)ccc1C)C2=O` (stereo not shown) [Example 11, 5-(5-Chloro-2-methyl-phenyl)-6-(4-chloro-phenyl)-2-(5-hydroxymethyl-2-methoxy-phenyl)-1-isopropyl-5,6-dihydro-1H-pyrrolo[3,4-b]pyrrol-4-one], the IC50 is 0.113 nM.
For `COc1nc(N(C)C)ncc1-c1cc2c(n1C(C)C)C(c1ccc(Cl)cc1)N(c1cc(C)nn1C)C2=O` (stereo not shown) [Example 177, 6-(4-Chloro-phenyl)-2-(2-dimethylamino-4-methoxy-pyrimidin-5-yl)-5-(2,5-dimethyl-2H-pyrazol-3-yl)-1-isopropyl-5,6-dihydro-1H-pyrrolo[3,4-b]pyrrol-4-one], the IC50 was 0.514 nM.
As for `CNc1ncc(-c2cc3c(n2C(C)C)C(c2ccc(C#N)cc2)N(c2c[nH]c(=O)c(Cl)c2)C3=O)c(OC)n1` (stereo not shown) [Example 137, 4-[5-(5-Chloro-6-oxo-1,6-dihydro-pyridin-3-yl)-1-isopropyl-2-(4-methoxy-2-methylamino-pyrimidin-5-yl)-4-oxo-1,4,5,6-tetrahydro-pyrrolo[3,4-b]pyrrol-6-yl]-benzonitrile], the figure is 0.321 nM.
With `COc1nc(N)ncc1-c1cc2c(n1C(C)C)C(c1ccc(Cl)cc1)N(c1cc(Cl)cnc1OC)C2=O` (stereo not shown) [Example 206, 2-(2-Amino-4-methoxy-pyrimidin-5-yl)-5-(5-chloro-2-methoxy-pyridin-3-yl)-6-(4-chloro-phenyl)-1-isopropyl-5,6-dihydro-1H-pyrrolo[3,4-b]pyrrol-4-one], the IC50 amounted to 0.509 nM.
Take `COc1nc(N)ncc1-c1cc2c(n1C(C)C)C(c1ccc(C#N)cc1)N(c1cc(Cl)ccc1C)C2=O` (stereo not shown) [Example 43]: the IC50 is 0.401 nM.
With `COc1ncc(-c2cc3c(n2C(C)C)[C@@](C)(c2ccc(Cl)cc2)N(c2cc(Cl)c(=O)n(C)c2)C3=O)c(OC)n1` [Example 163, (R)-5-(5-Chloro-1-methyl-6-oxo-1,6-dihydro-pyridin-3-yl)-6-(4-chloro-phenyl)-2-(2,4-dimethoxy-pyrimidin-5-yl)-1-isopropyl-6-methyl-5,6-dihydro-1H-pyrrolo[3,4-b]pyrrol-4-one], the concentration for half-maximal inhibition (IC50) was found to be 42.7 nM.
Take `CNC(=O)Cc1ccc(OC)c(-c2cc3c(n2C(C)C)C(c2ccc(Cl)cc2)N(c2cc(Cl)ccc2C)C3=O)c1` (stereo not shown) [Example 81, 2-{3-[5-(5-Chloro-2-methyl-phenyl)-6-(4-chloro-phenyl)-1-isopropyl-4-oxo-1,4,5,6-tetrahydro-pyrrolo[3,4-b]pyrrol-2-yl]-4-methoxy-phenyl}-N-methyl-acetamide]: the 50% inhibitory concentration (IC50) amounted to 0.148 nM.
Consider `COc1nc(N(C)C)ncc1-c1cc2c(n1C(C)C)[C@@H](c1ccc(C#N)cc1)N(C1CCOCC1)C2=O` [Example 191, 4-[(R)-2-(2-Dimethylamino-4-methoxy-pyrimidin-5-yl)-1-isopropyl-4-oxo-5-(tetrahydro-pyran-4-yl)-1,4,5,6-tetrahydro-pyrrolo[3,4-b]pyrrol-6-yl]-benzonitrile], for which the IC50 is 280 nM.
For the compound `COc1nc(N(C)C)ncc1-c1cc2c(n1C(C)C)C(c1ccc(Cl)cc1)N(C1CCOCC1)C2=O` (stereo not shown) [Example 79, 6-(4-Chloro-phenyl)-2-(2-dimethylamino-4-methoxy-pyrimidin-5-yl)-1-isopropyl-5-(tetrahydro-pyran-4-yl)-5,6-dihydro-1H-pyrrolo[3,4-b]pyrrol-4-one], the IC50 was determined as 0.423 nM.
With `COc1ncc(-c2cc3c(n2C(C)C)C(c2ccc(Cl)cc2)N(C2CCC(=O)N(C)C2)C3=O)c(OC)n1` (stereo not shown) [Example 109, 6-(4-Chloro-phenyl)-2-(2,4-dimethoxy-pyrimidin-5-yl)-1-isopropyl-5-(1-methyl-6-oxo-piperidin-3-yl)-5,6-dihydro-1H-pyrrolo[3,4-b]pyrrol-4-one], the IC50 came out at 1.6 nM.
For the compound `COc1nc(N)ncc1-c1cc2c(n1C(C)C)C(c1ccc(Cl)cc1C)N(c1cc(Cl)c(=O)n(C)c1)C2=O` (stereo not shown) [Example 148, 2-(2-Amino-4-methoxy-pyrimidin-5-yl)-5-(5-chloro-1-methyl-6-oxo-1,6-dihydro-pyridin-3-yl)-6-(4-chloro-2-methyl-phenyl)-1-isopropyl-5,6-dihydro-1H-pyrrolo[3,4-b]pyrrol-4-one], the IC50 was 0.592 nM.
As for `COc1ccc(CC(N)=O)cc1-c1cc2c(n1C(C)C)C(c1ccc(Cl)cc1)N(c1cc(Cl)ccc1C)C2=O` (stereo not shown) [Example 80, 2-{3-[5-(5-Chloro-2-methyl-phenyl)-6-(4-chloro-phenyl)-1-isopropyl-4-oxo-1,4,5,6-tetrahydro-pyrrolo[3,4-b]pyrrol-2-yl]-4-methoxy-phenyl}-acetamide], the IC50 was determined as 0.115 nM.
Turning to `COc1nc(N(C)C)ncc1-c1cc2c(n1C(C)C)C(c1ccc(Cl)cc1)N(c1cn(C)nc1C)C2=O` (stereo not shown) [Example 182, 6-(4-Chloro-phenyl)-2-(2-dimethylamino-4-methoxy-pyrimidin-5-yl)-5-(1,3-dimethyl-1H-pyrazol-4-yl)-1-isopropyl-5,6-dihydro-1H-pyrrolo[3,4-b]pyrrol-4-one], the IC50 worked out at 0.659 nM.
On to `CNC(=O)c1ccc(OC)c(-c2cc3c(n2C(C)C)C(c2ccc(Cl)cc2C)N(c2cc(Cl)c(=O)n(C)c2)C3=O)c1` (stereo not shown) [Example 145, 3-[5-(5-Chloro-1-methyl-6-oxo-1,6-dihydro-pyridin-3-yl)-6-(4-chloro-2-methyl-phenyl)-1-isopropyl-4-oxo-1,4,5,6-tetrahydro-pyrrolo[3,4-b]pyrrol-2-yl]-4-methoxy-N-methyl-benzamide], for which the IC50 worked out at 0.187 nM.
As for `CNC(=O)c1ccc(OC)c(-c2cc3c(n2C(C)C)[C@@H](c2ccc(Cl)cc2C)N(c2cccc(Cl)c2F)C3=O)c1` [Example 8, 3-[(R)-5-(3-Chloro-2-fluoro-phenyl)-6-(4-chloro-2-methyl-phenyl)-1-isopropyl-4-oxo-1,4,5,6-tetrahydro-pyrrolo[3,4-b]pyrrol-2-yl]-4-methoxy-N-methyl-benzamide], the IC50 was 49 nM.
The value for `COc1nc(N(C)C)ncc1-c1cc2c(n1C(C)C)C(c1ccc(Cl)cc1)N(c1c(F)c(C)nn1C)C2=O` (stereo not shown) [Example 209, 6-(4-Chloro-phenyl)-2-(2-dimethylamino-4-methoxy-pyrimidin-5-yl)-5-(4-fluoro-2,5-dimethyl-2H-pyrazol-3-yl)-1-isopropyl-5,6-dihydro-1H-pyrrolo[3,4-b]pyrrol-4-one] was 0.158 nM; that for `COc1nc(N(C)C)ncc1-c1cc2c(n1C(C)C)C(c1ccc(C#N)cc1)N(c1cccc(Cl)c1F)C2=O` (stereo not shown) [Example 94, 4-[5-(3-Chloro-2-fluoro-phenyl)-2-(2-dimethylamino-4-methoxy-pyrimidin-5-yl)-1-isopropyl-4-oxo-1,4,5,6-tetrahydro-pyrrolo[3,4-b]pyrrol-6-yl]-benzonitrile] was 0.188 nM; that for `COc1cn(C)c(=O)cc1-c1cc2c(n1C(C)C)C(c1ccc(Cl)cc1)N(c1cc(C)nn1C)C2=O` (stereo not shown) [Example 178, 6-(4-Chloro-phenyl)-5-(2,5-dimethyl-2H-pyrazol-3-yl)-1-isopropyl-2-(5-methoxy-1-methyl-2-oxo-1,2-dihydro-pyridin-4-yl)-5,6-dihydro-1H-pyrrolo[3,4-b]pyrrol-4-one] was 1.07 nM.
Take `COc1ncc(-c2cc3c(n2C(C)C)C(c2ccc(C#N)cc2)N(c2cccc(Cl)c2F)C3=O)c(OC)n1` (stereo not shown) [Example 42, 4-[5-(3-Chloro-2-fluoro-phenyl)-2-(2,4-dimethoxy-pyrimidin-5-yl)-1-isopropyl-4-oxo-1,4,5,6-tetrahydro-pyrrolo[3,4-b]pyrrol-6-yl]-benzonitrile]: the half-inhibitory concentration (IC50) stood at 0.246 nM.
For the compound `COc1ccc(CO)cc1-c1cc2c(n1C(C)C)C(c1ccc(Cl)cc1C)N(c1cccc(Cl)c1F)C2=O` (stereo not shown) [Example 4, 5-(3-Chloro-2-fluoro-phenyl)-6-(4-chloro-2-methyl-phenyl)-2-(5-hydroxymethyl-2-methoxy-phenyl)-1-isopropyl-5,6-dihydro-1H-pyrrolo[3,4-b]pyrrol-4-one], the IC50 came to 0.286 nM.
Consider `COc1nc(N(C)C)ncc1-c1cc2c(n1C(C)C)C(c1ccc(C#N)cc1)N(c1cc(Cl)cnc1OC)C2=O` (stereo not shown) [Example 207, 4-[5-[5-Chloro-2-methoxy-pyridin-3-yl)-2-(2-dimethylamino-4-methoxy-pyrimidin-5-yl)-1-isopropyl-4-oxo-1,4,5,6-tetrahydro-pyrrolo[3,4-b]pyrrol-6-yl]-benzonitrile], for which the IC50 is 0.185 nM.

(Values after patent US9365576B2, “Pyrrolopyrrolidinone compounds” (Novartis AG, priority 2012, dated 2016).)
